Consider 5 compounds from patent publication US9044476B2, “Use of uraria in promoting osteogenesis or providing neuroprotection” (TAIPEI MEDICAL UNIVERSITY, priority 2013, dated 2015).

What all share (assay type): cell-based, human
The test system of data set [1] is HOb cells. Put plainly: Alkaline phosphatase (ALP) assay in HOb cells. The following applies: compounds 100 μM, 72 h. The method, then:
HOb cells were seeded in 96-well plates. Twenty-four hours after plating, the old medium was discarded and the cells were treated with tested extracts (100 μg/ml) in Osteoblast Differentiation Medium for 72 h. ALP activity was assessed using the p-nitrophenyl phosphate disodium substrate. Data are shown as mean±SD (n=3). *P<0.05 and **P<0.01 as compared with control (n=3).
HOb cells were seeded in 96-well plates. Twenty-four hours after plating, the old medium was discarded and the cells were treated with tested compounds (100 μM) in Osteoblast Differentiation Medium for 72 h. ALP activity was assessed using the p-nitrophenyl phosphate disodium substrate. Data are shown as mean±SD (n=3). *P<0.05 and **P<0.01 as compared with control (n=3).
(§1) Human osteoblasts (HOb) were primary cells derived from a person from a normal femoral bone and obtained from Cell Applications (San Diego, Calif., USA). HOb cells were grown in Osteoblast Growth Medium and maintained at 37° C. in 5% CO2 humidified atmosphere. The medium was changed every other day. To maintain exponential growth, the cells were subcultured every 7 days. HOb cells were used for cell viability, differentiation, and mineralization assays.
The alkaline phosphatase (ALP) activities of U. crinita extract and its constituents were measured with p-nitrophenyl phosphate as the substrate. HOb cells were seeded in 96-well plates at a density of 4×10^3 cells per well. Twenty-four hours after plating, the old medium was discarded and the cells were treated with tested extracts or compounds in Osteoblast Differentiation Medium. After 72 hours incubation, the medium was discarded and the cells rinsed twice with cold PBS, and cells were lysed with lysis buffer (PBS containing 0.1% Triton X-100). The cellular protein concentration in supernatant was determined after incubation with BCA (bicinchoninic acid) protein reagent for 1 hour at 37° C. The reaction was stopped by adding 1M NaOH, and absorbance measured at 560 nm. Furthermore, the ALP activity in supernatant was assayed by incubation for 1 hour at 37° C. in 0.1 M NaHCO3—Na2CO3 buffer, pH 10, containing 0.1% Triton X-100, 2 mM MgSO4, and 6 mM p-nitrophenyl phosphate. The reaction was stopped by adding 1M NaOH and absorbance was measured at 405 nm. Each value was normalized to the protein concentration.

Data set [2] concerns HOb cells. Put plainly: Mineralized matrix formation assay (Alizarin Red-S) in HOb cells. The conditions noted are these: for formation of mineralized bone nodules: compounds 100 μM, 12 days. On the procedure: (§2) HOb cells were plated in 24-well plates. Three days after plating, the old medium was discarded and the cells were treated with tested extracts (100 μg/ml) in mineralizing media (Osteoblast Differentiation Medium containing ascorbic acid (50 μg/ml) and β-glycerophosphate (10 mM) for 12 days. At the end of experiment, cultures were fixed in 75% ethanol, and mineralized nodule formation was assessed by Alizarin Red-S staining. The bound staining was eluted with a solution of 10% cetylpyridinium chloride and quantified using a microtiter plate reader. Data are shown as mean±SD (n=3). *P<0.05 and **P<0.01 as compared with control (n=3).
as §2, with “tested compounds” for “tested extracts”, “(100 μM)” for “(100 μg/ml)”, “Differentiation Medium)” for “Differentiation Medium”
as §1
The mineralization activities of U. crinita extract and its constituents were measured by Alizarin Red-S staining of calcium. HOb cells were seeded in 24-well plates at a density of 7×10^4 cells per well. Three days after plating, the old medium was discarded and the cells were treated with tested extracts or compounds in mineralizing media (Osteoblast Differentiation Medium) containing ascorbic acid (50 μg/ml) and β-glycerophosphate (10 mM) for 12 days. At the end of experiment, cultures were fixed in 75% ethanol, and calcium deposits were stained for 15 minutes at room temperature with Alizarin Red-S solution (40 mM, pH 4.2). The bound staining was eluted with a solution of 10% (w/v) cetylpyridinium chloride in 10 mM sodium phosphate (pH 7.0) and quantified using a ELISA reader at 550 nm.

The subject of data set [3] is HOb cells. Put plainly: Cell viability (MTT) assay in HOb cells. The conditions noted are these: 100 μM, 72 hours. The method, then:
HOb cells were seeded in 96-well plates. Twenty-four hours after plating, the old medium was discarded and the cells were treated with tested compounds (100 μM) in Osteoblast Differentiation Medium for 72 h. Cell viability was assessed using the MTT assay. Data are shown as mean±SD (n=3). *P<0.05 and **P<0.01 as compared with control (n=3).
Human osteoblasts (HOb) were primary cells derived from a person from a normal femoral bone and obtained from Cell Applications (San Diego, Calif., USA). HOb cells were grown in Osteoblast Growth Medium and maintained at 37° C. in 5% CO2 humidified atmosphere. The medium was changed every other day. To maintain exponential growth, the cells were subcultured every 7 days. […]
The cell viability of U. crinita extract and its constituents were determined using the MTT assay as described elsewhere (Scudiero et al., 1988). […] The absorbance at 600 nm was recorded using an ELISA reader. […]

Each structure is given as a SMILES string.

On to `O=C1c2c(O)cc(O)cc2OCC1c1ccc(O)cc1O` (stereo not shown) [Compound 1, dalbergioidin], for which the ALP activity in the data set on HOb cells [1] is 114.10±4.41%. Also, in the data set on HOb cells [2], the “formation of mineralized bone nodules” value is listed as 107.09±2.80%.
For the compound `O=c1cc(-c2ccc(O)cc2)oc2cc(O)c(C3OCC(O)C(O)C3OC3OCC(O)(CO)C3O)c(O)c12` (stereo not shown) [Compound 3], the ALP activity in the data set on HOb cells [1] is reported as 109.68±2.20%. Further, the “formation of mineralized bone nodules” value in the data set with HOb cells [2] was determined as 150.10±0.80%. The “mineralization activity, ranking in words” value in the data set on HOb cells [2] (isolated compounds, 100 μM) was “most potent mineralization activity”.
`N[C@@H](Cc1c[nH]c2ccccc12)C(=O)O` [Compound 5, tryptophan] showed a cell viability with HOb cells [3] of 80.43±1.11%.
Turning to `Nc1ncnc2c1ncn2[C@@H]1O[C@H](CO)[C@@H](O)[C@H]1O` [Compound 7, adenosine], the ALP activity in the data set on HOb cells [1] amounted to 108.70±4.14%. For the same compound, in the data set on HOb cells [2], the “formation of mineralized bone nodules” value came to 125.21±3.75%.
Consider `CC1=CC(=O)CC(C)(C)[C@H]1CC[C@@H](C)O[C@@H]1O[C@H](CO)[C@@H](O)[C@H](O)[C@H]1O` [Compound 9, byzantionoside B], for which the ALP activity in the data set on HOb cells [1] came out at 114.81±0.18%. In addition, the “formation of mineralized bone nodules” value in the data set with HOb cells [2] is listed as 129.21±6.13%.
